Experimental data reported in US20210169961A1, “HEPATOPROTECTIVE TRADITIONAL CHINESE MEDICINE COMPOSITION, EXTRACT THEREOF, AND PHARMACEUTICAL USE THEREOF” (SHUGUANG HOSPITAL AFFILIATED TO SHANGHAI UNIVERSITY OF …, priority 2018, published 2021).

Key:
Assay type in all cases: in vivo, human
[1] = test system: CHB patients (hepatic fibrosis); assay: Curative effect on patients with hepatic fibrosis, double-blind placebo-control multicenter trial (Example 34); conditions: after 12 months, treatment group: Entecavir + test sample, P<0.001
[2] = test system: patients with HBeAg negative chronic hepatitis B; assay: Curative effects on patients with hepatitis B, randomized controlled trial (Example 31); conditions: after 30-month treatment, control group: Entecavir + placebo
[3] = test system: patients with advanced primary hepatocarcinoma after surgery; assay: Curative effect of the compound granules on patients with liver cancer (Example 36); conditions: for patients of liver cancer recurred: test sample + Entecavir vs Entecavir

**Q.** Which “HBeAg levels compared to those before treatment” value [1] does the source give for C=C1[C@H](CO)[C@@H](O)C[C@@H]1n1cnc2c(=O)[nH]c(N)nc21 [Entecavir] here?
**A.** remarkably decreased

**Q.** What about the ALT recurrence rate ([2]; treatment group: test sample 60 g clear extract/day + Entecavir 0.5 mg/day) of the same molecule?
**A.** 93.2%

**Q.** What about the “HBsAg averagely reduced by” value ([2]; treatment group: test sample + Entecavir) of the same molecule?
**A.** 0.028 log IU/ml

**Q.** And the “therapeutic effects on traditional Chinese medicine symptoms: invalid cases” value ([3]; after treatment)?
**A.** 65 cases

**Q.** What about the “therapeutic effects on traditional Chinese medicine symptoms: patients with curative effect” value ([3]; after treatment) of the same molecule?
**A.** 0 patients

**Q.** What about the “therapeutic effects on traditional Chinese medicine symptoms: valid cases” value ([3]; after treatment) of the same molecule?
**A.** 16 cases

**Q.** What about the “patients with nausea and vomiting improved” value ([3]; among 38 patients (treatment group) / 51 patients (control group)) of the same molecule?
**A.** 15 cases

**Q.** What about the “patients with tastelessness improved” value ([3]; among 61 patients (treatment group) / 58 patients (control group)) of the same molecule?
**A.** 25 cases

**Q.** And the “patients with stomach distension improved” value ([3]; among 68 patients (treatment group) / 62 patients (control group))?
**A.** 35 cases

**Q.** What about the “patients with fatigue and acratia improved” value ([3]; among 73 patients (treatment group) / 69 patients (control group)) of the same molecule?
**A.** 45 cases

**Q.** What about the “patients of liver cancer recurred” value ([3]; at 3 months of follow-up visit) of the same molecule?
**A.** 48 patients

**Q.** And the “patients of liver cancer recurred” value ([3]; at 3 months of treatment)?
**A.** 13 patients

**Q.** And the “patients of liver cancer recurred” value ([3]; at 6 months of treatment)?
**A.** 44 patients

**Q.** What about the accumulative survival rate ([3]; treatment group: test sample 60 g clear extract/day + Entecavir 0.5 mg/day, control group: Entecavir 0.5 mg/day) of the same molecule?
**A.** 76.7%
